Laboratory results: publication PMC3823697, “Intensive Mutagenesis of the Nisin Hinge Leads to the Rational Design of Enhanced Derivatives” (PLoS ONE, 2013)
Ends that are not written are not given here.

Legend:
L. lactis HP [1] = experiment: Deferred antagonism assay of producer strains; assay type: cell-based, Lactococcus lactis; details: for Deferred Antagonism Zone Area: L. lactis NZ9800 producer spotted (approx. 3 µl) on GM17 agar, 16 h 30°C, overlaid with 0.75% agar seeded 0.5% with L. lactis HP, area of zone minus area of spot; for Deferred Antagonism Relative to WT (%): producer strain vs L. lactis HP, zone area relative to wild type nisin A producer
S. aureus RF122 [2] = experiment: Deferred antagonism assay of producer strains; assay type: cell-based, Staphylococcus aureus; details: for Deferred Antagonism Zone Area: L. lactis NZ9800 producer spotted (approx. 3 µl) on GM17 agar, 16 h 30°C, overlaid with 0.75% agar seeded 0.5% with S. aureus RF122, area of zone minus area of spot; for Deferred Antagonism Relative to WT (%): producer strain vs S. aureus RF122, zone area relative to wild type nisin A producer
S. agalactiae ATCC 13813 [3] = experiment: Deferred antagonism assay of producer strains; assay type: cell-based, Streptococcus agalactiae; details: for Deferred Antagonism Zone Area: L. lactis NZ9800 producer spotted (approx. 3 µl) on GM17 agar, 16 h 30°C, overlaid with 0.75% agar seeded 0.5% with S. agalactiae ATCC 13813, area of zone minus area of spot; for Deferred Antagonism Relative to WT (%): producer strain vs S. agalactiae ATCC 13813, zone area relative to wild type nisin A producer
M. smegmatis MC2155 [4] = experiment: Deferred antagonism assay of producer strains; assay type: cell-based, Mycobacterium smegmatis; details: for Deferred Antagonism Zone Area: L. lactis NZ9800 producer spotted (approx. 3 µl) on GM17 agar, incubated 40 h, overlaid with 0.75% agar seeded 0.5% with M. smegmatis MC2155, area of zone minus area of spot; for Deferred Antagonism Relative to WT (%): producer strain vs M. smegmatis MC2155, zone area relative to wild type nisin A producer
L. lactis HP [5] = experiment: Agar well diffusion assay with purified peptide; assay type: cell-based, Lactococcus lactis; details: for 100 mg L^−1 Agar Diffusion Zone Area: purified peptide 100 mg L^−1, 50 µl per well, 1.5% agar seeded 0.5% with L. lactis HP, 16 h; for 100 mg L^−1 Agar Diffusion Relative to WT (%): purified peptide 100 mg L^−1 vs L. lactis HP, zone area relative to nisin A
S. aureus RF122 [6] = experiment: Agar well diffusion assay with purified peptide; assay type: cell-based, Staphylococcus aureus; details: for 100 mg L^−1 Agar Diffusion Zone Area: purified peptide 100 mg L^−1, 50 µl per well, 1.5% agar seeded 0.5% with S. aureus RF122, 16 h; for 100 mg L^−1 Agar Diffusion Relative to WT (%): purified peptide 100 mg L^−1 vs S. aureus RF122, zone area relative to nisin A
S. agalactiae ATCC 13813 [7] = experiment: Agar well diffusion assay with purified peptide; assay type: cell-based, Streptococcus agalactiae; details: for 100 mg L^−1 Agar Diffusion Zone Area: purified peptide 100 mg L^−1, 50 µl per well, 1.5% agar seeded 0.5% with S. agalactiae ATCC 13813, 16 h; for 100 mg L^−1 Agar Diffusion Relative to WT (%): purified peptide 100 mg L^−1 vs S. agalactiae ATCC 13813, zone area relative to nisin A
M. smegmatis MC2155 [8] = experiment: Agar well diffusion assay with purified peptide; assay type: cell-based, Mycobacterium smegmatis; details: for 100 mg L^−1 Agar Diffusion Zone Area: purified peptide 100 mg L^−1, 50 µl per well, 0.75% agar seeded 0.5% with 40 h culture of M. smegmatis MC2155, 40 h; for 100 mg L^−1 Agar Diffusion Relative to WT (%): purified peptide 100 mg L^−1 vs M. smegmatis MC2155, zone area relative to nisin A
L. lactis HP [9] = experiment: Minimum inhibitory concentration (MIC) assay in broth; assay type: cell-based, Lactococcus lactis; details: BSA-pretreated 96-well plates, triplicate, 2-fold dilutions from 500 nM, 10^5 cfu/ml, 16 h
Experimental: (§1) Minimum inhibitory concentration assays were carried out in triplicate using 96-well plates (Sarstedt) pretreated with bovine serum albumin (BSA) as previously described. Wild type nisin and nisin derivatives were adjusted to a 500 nM (when using L. lactis as a target) or 7.5 µM (all other indicators) starting concentration and 2-fold serial dilutions of each peptide were carried out. An overnight of the target strain was subcultured and incubated to an OD600 nm of 0.5 before being diluted to give a final inoculum of 10^5cfu/ml in 200μl. The plates were incubated at an appropriate temperature and inspected after 16 hours. The MIC was determined as the lowest concentration at which no growth was visible.

S. aureus RF122 [10] = experiment: as above; assay type: cell-based, Staphylococcus aureus; details: BSA-pretreated 96-well plates, triplicate, 2-fold dilutions from 7.5 µM, 10^5 cfu/ml, 16 h
Experimental: as §1

S. agalactiae ATCC 13813 [11] = experiment: as above; assay type: cell-based, Streptococcus agalactiae; details: for MIC Specific Activity as % of WT: broth, BSA-pretreated 96-well plates, triplicate, 2-fold dilutions from 7.5 µM, 10^5 cfu/ml, 16 h
Experimental: as §1

Substance | Deferred Antagonism Zone Area (L. lactis HP [1]) [mm^2] | Deferred Antagonism Relative to WT (%) (L. lactis HP [1]) | Deferred Antagonism Zone Area (S. aureus RF122 [2]) [mm^2] | Deferred Antagonism Relative to WT (%) (S. aureus RF122 [2]) | Deferred Antagonism Zone Area (S. agalactiae ATCC 13813 [3]) [mm^2] | Deferred Antagonism Relative to WT (%) (S. agalactiae ATCC 13813 [3]) | Deferred Antagonism Zone Area (M. smegmatis MC2155 [4]) [mm^2] | Deferred Antagonism Relative to WT (%) (M. smegmatis MC2155 [4]) | 100 mg L^−1 Agar Diffusion Zone Area (L. lactis HP [5]) [mm^2] | 100 mg L^−1 Agar Diffusion Relative to WT (%) (L. lactis HP [5]) | 100 mg L^−1 Agar Diffusion Zone Area (S. aureus RF122 [6]) [mm^2] | 100 mg L^−1 Agar Diffusion Relative to WT (%) (S. aureus RF122 [6]) | 100 mg L^−1 Agar Diffusion Zone Area (S. agalactiae ATCC 13813 [7]) [mm^2] | 100 mg L^−1 Agar Diffusion Relative to WT (%) (S. agalactiae ATCC 13813 [7]) | 100 mg L^−1 Agar Diffusion Zone Area (M. smegmatis MC2155 [8]) [mm^2] | 100 mg L^−1 Agar Diffusion Relative to WT (%) (M. smegmatis MC2155 [8]) | MIC Specific Activity as % of WT (L. lactis HP [9]) [%] | MIC Specific Activity as % of WT (S. aureus RF122 [10]) [%] | Improvement in broth based specific activity relative to the natural peptide (S. agalactiae ATCC 13813 [11]; broth based specific activity (MIC) assay) | MIC Specific Activity as % of WT (S. agalactiae ATCC 13813 [11]) [%]
AAA: nisin A derivative with hinge region consisting of AAA (rational design) (ITSISLCTPGCKTGALMGCAAATATCHCSIHVSK; not fully specified; also: nisin-type thioether rings and dehydrated residues, not located; UniProt P13068 24-57, looked up, variant N20A M21A K22A) | 492.83±40.27 | 164.51 | 292.24±11.46 | 211.29 | 401.32±15.62 | 177.14 | 277.65±60.42 | 541.09 | 416.00±17.99 | 155.41 | 155.77±3.30 | 156.81 | 305.58±2.39 | 124.06 | 149.24±4.776 | 220.15 | 100 | 25 | two-fold improvement | 200
NAI: nisin A derivative with hinge region NAI (ITSISLCTPGCKTGALMGCNAITATCHCSIHVSK; also: nisin-type thioether rings and dehydrated residues, not located; UniProt P13068 24-57, looked up, variant M21A K22I) | 439.52±47.88 | 146.71 | – | 118.02 | 318.81±7.915 | 140.72 | 270.04±58.30 | 526.26 | 371.32±19.60 | – | 129.75±11.36 | 130.61 | 291.52±8.46 | 118.36 | 78.50±8.16 | 115.8 | 100 | 25 | – | 200
Nisin A (ITSISLCTPGCKTGALMGCNMKTATCHCSIHVSK; not fully specified; Lantibiotic nisin-A; UniProt P13068 24-57, looked up) [WT, 34 amino acid lantibiotic with three dehydrated amino acids and five thioether rings; hinge N20-M21-K22, reference compound] | 299.58±7.04 | – | 138.31±3.36 | – | 226.55±2.96 | – | 51.31±10.08 | – | 267.69±9.21 | – | 99.34±12.33 | – | 246.31±2.74 | – | 67.79±4.308 | – | – | – | – | –
SAA: nisin A derivative with hinge region consisting of SAA (rational design) (ITSISLCTPGCKTGALMGCSAATATCHCSIHVSK; also: nisin-type thioether rings and dehydrated residues, not located; UniProt P13068 24-57, looked up, variant N20S M21A K22A) | 483.14±33.89 | 161.28 | 236.28±13.53 | 170.83 | 407.98±18.452 | 180.08 | 303.85±59.93 | 592.15 | 344.76±18.50 | – | 130.60±4.46 | 131.47 | 301.62±8.18 | 122.46 | 101.19±11.510 | 149.27 | 50 | 25 | – | 100
SLS: nisin A derivative with hinge region SLS (ITSISLCTPGCKTGALMGCSLSTATCHCSIHVSK; also: nisin-type thioether rings and dehydrated residues, not located; UniProt P13068 24-57, looked up, variant N20S M21L K22S) | 370.75±28.28 | 123.76 | 153.93±7.15 | 111.29 | 209.45±17.11 | 92.45 | 230.31±20.31 | 448.84 | 321.93±22.43 | 120.26 | 98.82±10.14 | 99.47 | 226.05±4.10 | 91.78 | 119.56±8.59 | 176.36 | 25 | <6 | – | 25
